# Assay results as given in article PMC7712428, “Dimethoate Induces DNA Damage and Mitochondrial Dysfunction Triggering Apoptosis in Rat Bone-Marrow and Peripheral Blood Cells” (Toxics, 2020).
# Values joined by “and” are separate entries in the source; they are usually repeats but may differ in a detail not shown here. Identical values can stand only once. Like-named read-outs stand apart in the source and are kept apart here.
# Legend:
# [1] = tested on: Neutrophils
# From the text: (§1) The experimental animals—Rattus norvegicus (Wistar strain; 8–10 weeks old; 120 ± 20 gm; males only) were acquired from Indian Institute of Integrative Medicine (IIIM-CSIR) (Jammu, India), quarantined, acclimatized and sacrificed as per standard practice conforming to the University Ethical Regulations. After acclimatization, rats were divided into five groups by stratified randomization with five animals per group. […] Distilled water was used to prepare dosing solutions of test agent and injected via intraperitoneal (i.p.) injection. At 24, 48 and 72 h post-dosing, 5 rats per duration were sacrificed and necessary tissues were isolated for different cytogenetic and molecular parameters. For CA assessment, separate experimental lot was used due to colchicine treatment.
# (§2) WBCs were isolated by following the protocol of Lone et al.. Blood was collected in 0.1% EDTA from retro-orbital plexus of rat, followed by incubation for 30 min. 500 µL of blood was then added to a centrifuge tube with 1 mL FACS lysing solution. The blood was incubated for 10 min and centrifuged (2000 rpm, 10 min) at 25 °C. After discarding the supernatant, pellet was washed in 1mL FACS lysing solution followed by centrifuging at 2000 rpm for 5 min. Repeated this step twice and then pellet was put in 500 µL of PBS, leaving only WBCs.
# (§3) Protocol of Majeed and colleagues was employed for flow cytometric measurements of change in Ψm. […] Leukocytes were identified via forward and side scatter.
# [2] = tested on: Eosinophils
# From the text: as §1, §2, §3
# [3] = tested on: bone marrow cells; conditions: for Total Aberrations (Mean ± SD): mean percentage; for MI (Mean ± SD): mitotic index mean percentage; for Structural Aberrations Assoc: number of associations; for Structural Aberrations Brk: number of breaks; for Structural Aberrations Del: number of deletions; for Structural Aberrations Dcn: number of dicentrics; for Structural Aberrations Frag: number of fragments; for Structural Aberrations Gp: number of gaps; for Structural Aberrations Ring: number of rings
# From the text: as §1
# Method of Preston et al. was used for preparing the metaphase chromosomes. An aqueous solution of Colchicine (4 mg/kgbw) was injected intraperitoneally 2 h prior to sacrificing the animal. Pre-warm KCL (0.075 M) solution was used to collect the bone marrow cells followed by incubation at 37 °C for 20 min, and then centrifuge at 1000 rpm for 10 min. After fixing the pellet in cold Cornoy’s fixative dropped onto clean pre-chilled glass slide in 30% ethanol and dried in air. 5% buffered Giemsa (pH 7.0) was used for staining. Chromosomal aberrations were analyzed on properly separated metaphases and finally photographed at 100× (Olympus U—PMTV microscope), using oil immersion. The metaphase cells from approximately 1000 cells per concentration per animal both in exposed and control replicates, expressed in percentage were considered for mitotic indices (MI).
# [4] = tested on: peripheral blood cells; conditions: for Olive Tail Moment / Tail Length (µm): Mean ± SD
# From the text: as §1
# Detection of DNA strand break was performed according to protocol of Singh et al. with some modifications. Briefly, blood was collected using Retro-orbital bleeding during euthanasia. 10μL whole blood cells obtained were mixed with 75 µL of 0.5% LMPA and layered onto frosted slides which was pre-coated with NMA. After putting cover slip, slides were kept for 5–10min. After gelling, removed cover slip gently and added a layer of 90 μL of LMPA. After replacing the cover slip, slides were placed on the slide tray (ice packs) till the agarose layer hardened (5–10 min). Following this, removed the cover slip and by gently immersing the slides in lysis buffer embedded cells were lysed. Cells lysis was performed in cold conditions for a minimum of 2 h in lysing solution.
# Alkaline conditions (pH > 13) were used to perform the electrophoresis. After lysis, slides were subjected in electrophoretic buffer at 4 °C for 40 min to achieve the DNA denaturation that allow the DNA unwinding and the expression of alkali labile site. Electrophoresis was then carried out at 0.74 V/cm for 40 min (300 mA; 24 volts) at 4 °C by raising or lowering buffer. Thereafter, neutralization buffer (0.4 M Tris, 10 M HCl; pH = 7.5) were employed to wash the slides. Slides were stained by 80 μL of 1× Ethidium Bromide and excess stain was removed by dipping in chilled distilled water. Slides were examined at 40× magnification under fluorescence microscope coupled with a charge coupled device camera (Olympus).
# [5] = tested on: Platelets; conditions: 72 h treatment
compound,measurement,setting,value
"CNC(=O)CSP(=S)(OC)OC [DM, 0,0- Dimethyl S-(N-methylcarbamoylmethyl) phosphorodithiote]",MMP loss (membrane potential loss),"[1]; neutrophils, 72 h treatment",greater than 90%
same,maximum MMP loss,"[1]; neutrophils, initial exposure time",greater than 30%
same,MMP loss in neutrophils,"[1]; range over increased DM doses, initial exposure time",2–40%
same,MMP loss,[2]; 48 h exposure period (Figure 8),around 30%
same,MMP loss (membrane potential loss),[2]; 72 h treatment,greater than 90%
same,Total Aberrations (Mean ± SD),"[3]; 20 mg/kgbw, 24 h","5.66 ± 1.03 **^,a %"
same,Total Aberrations (Mean ± SD),"[3]; 20 mg/kgbw, 48 h","5.33 ± 1.43 **^,a %"
same,Total Aberrations (Mean ± SD),"[3]; 20 mg/kgbw, 72 h","2.17 ± 0.83 *^,a %"
same,Total Aberrations (Mean ± SD),"[3]; 40 mg/kgbw, 24 h","5.83 ± 1.69 **^,a %"
same,Total Aberrations (Mean ± SD),"[3]; 40 mg/kgbw, 48 h","5.16 ± 1.74 **^,a %"
same,Total Aberrations (Mean ± SD),"[3]; 40 mg/kgbw, 72 h","2.67 ± 0.75 *^,a %"
same,Total Aberrations (Mean ± SD),"[3]; 60 mg/kgbw, 24 h","7.50 ± 1.15% and 7.50 ± 1.15 **^,a,*^,b %"
same,Total Aberrations (Mean ± SD),"[3]; 60 mg/kgbw, 48 h","6.83 ± 1.90 **^,a %"
same,Total Aberrations (Mean ± SD),"[3]; 60 mg/kgbw, 72 h","3.16 ± 0.71 *^,a %"
same,MI (Mean ± SD),"[3]; 20 mg/kgbw, 24 h","2.19 ± 0.21 *^,a %"
same,MI (Mean ± SD),"[3]; 20 mg/kgbw, 48 h","2.04 ± 0.15 *^,a %"
same,MI (Mean ± SD),"[3]; 20 mg/kgbw, 72 h","2.07 ± 0.10 *^,a %"
same,MI (Mean ± SD),"[3]; 40 mg/kgbw, 24 h","2.16 ± 0.16 *^,a %"
same,MI (Mean ± SD),"[3]; 40 mg/kgbw, 48 h","1.98 ± 0.08 *^,a %"
same,MI (Mean ± SD),"[3]; 40 mg/kgbw, 72 h","2.05 ± 0.14 *^,a %"
same,MI (Mean ± SD),"[3]; 60 mg/kgbw, 24 h","1.92 ± 0.61 *^,a %"
same,MI (Mean ± SD),"[3]; 60 mg/kgbw, 48 h","1.97 ± 0.12 *^,a %"
same,MI (Mean ± SD),"[3]; 60 mg/kgbw, 72 h","1.95 ± 0.04 *^,a %"
same,Structural Aberrations Assoc,"[3]; 20 mg/kgbw, 24 h",4
same,Structural Aberrations Assoc,"[3]; 20 mg/kgbw, 48 h",5
same,Structural Aberrations Assoc,"[3]; 20 mg/kgbw, 72 h",0
same,Structural Aberrations Assoc,"[3]; 40 mg/kgbw, 24 h",6
same,Structural Aberrations Assoc,"[3]; 40 mg/kgbw, 48 h",6
same,Structural Aberrations Assoc,"[3]; 40 mg/kgbw, 72 h",1
same,Structural Aberrations Assoc,"[3]; 60 mg/kgbw, 24 h",4
same,Structural Aberrations Assoc,"[3]; 60 mg/kgbw, 48 h",7
same,Structural Aberrations Assoc,"[3]; 60 mg/kgbw, 72 h",1
same,Structural Aberrations Brk,"[3]; 20 mg/kgbw, 24 h",2
same,Structural Aberrations Brk,"[3]; 20 mg/kgbw, 48 h",9
same,Structural Aberrations Brk,"[3]; 20 mg/kgbw, 72 h",2
same,Structural Aberrations Brk,"[3]; 40 mg/kgbw, 24 h",4
same,Structural Aberrations Brk,"[3]; 40 mg/kgbw, 48 h",3
same,Structural Aberrations Brk,"[3]; 40 mg/kgbw, 72 h",5
same,Structural Aberrations Brk,"[3]; 60 mg/kgbw, 24 h",6
same,Structural Aberrations Brk,"[3]; 60 mg/kgbw, 48 h",7
same,Structural Aberrations Brk,"[3]; 60 mg/kgbw, 72 h",8
same,Structural Aberrations Del,"[3]; 20 mg/kgbw, 24 h",4
same,Structural Aberrations Del,"[3]; 20 mg/kgbw, 48 h",5
same,Structural Aberrations Del,"[3]; 20 mg/kgbw, 72 h",4
same,Structural Aberrations Del,"[3]; 40 mg/kgbw, 24 h",4
same,Structural Aberrations Del,"[3]; 40 mg/kgbw, 48 h",4
same,Structural Aberrations Del,"[3]; 40 mg/kgbw, 72 h",2
same,Structural Aberrations Del,"[3]; 60 mg/kgbw, 24 h",6
same,Structural Aberrations Del,"[3]; 60 mg/kgbw, 48 h",5
same,Structural Aberrations Del,"[3]; 60 mg/kgbw, 72 h",3
same,Structural Aberrations Dcn,"[3]; 20 mg/kgbw, 24 h",8
same,Structural Aberrations Dcn,"[3]; 20 mg/kgbw, 48 h",3
same,Structural Aberrations Dcn,"[3]; 20 mg/kgbw, 72 h",2
same,Structural Aberrations Dcn,"[3]; 40 mg/kgbw, 24 h",12
same,Structural Aberrations Dcn,"[3]; 40 mg/kgbw, 48 h",8
same,Structural Aberrations Dcn,"[3]; 40 mg/kgbw, 72 h",2
same,Structural Aberrations Dcn,"[3]; 60 mg/kgbw, 24 h",10
same,Structural Aberrations Dcn,"[3]; 60 mg/kgbw, 48 h",7
same,Structural Aberrations Dcn,"[3]; 60 mg/kgbw, 72 h",2
same,Structural Aberrations Frag,"[3]; 20 mg/kgbw, 24 h",6
same,Structural Aberrations Frag,"[3]; 20 mg/kgbw, 48 h",12
same,Structural Aberrations Frag,"[3]; 20 mg/kgbw, 72 h",4
same,Structural Aberrations Frag,"[3]; 40 mg/kgbw, 24 h",3
same,Structural Aberrations Frag,"[3]; 40 mg/kgbw, 48 h",16
same,Structural Aberrations Frag,"[3]; 40 mg/kgbw, 72 h",5
same,Structural Aberrations Frag,"[3]; 60 mg/kgbw, 24 h",8
same,Structural Aberrations Frag,"[3]; 60 mg/kgbw, 48 h",14
same,Structural Aberrations Frag,"[3]; 60 mg/kgbw, 72 h",3
same,Structural Aberrations Gp,"[3]; 20 mg/kgbw, 24 h",8
same,Structural Aberrations Gp,"[3]; 20 mg/kgbw, 48 h",6
same,Structural Aberrations Gp,"[3]; 20 mg/kgbw, 72 h",5
same,Structural Aberrations Gp,"[3]; 40 mg/kgbw, 24 h",8
same,Structural Aberrations Gp,"[3]; 40 mg/kgbw, 48 h",7
same,Structural Aberrations Gp,"[3]; 40 mg/kgbw, 72 h",7
same,Structural Aberrations Gp,"[3]; 60 mg/kgbw, 24 h",7
same,Structural Aberrations Gp,"[3]; 60 mg/kgbw, 48 h",8
same,Structural Aberrations Gp,"[3]; 60 mg/kgbw, 72 h",6
same,Structural Aberrations Ring,"[3]; 20 mg/kgbw, 24 h",2
same,Structural Aberrations Ring,"[3]; 20 mg/kgbw, 48 h",6
same,Structural Aberrations Ring,"[3]; 20 mg/kgbw, 72 h",1
same,Structural Aberrations Ring,"[3]; 40 mg/kgbw, 24 h",6
same,Structural Aberrations Ring,"[3]; 40 mg/kgbw, 48 h",5
same,Structural Aberrations Ring,"[3]; 40 mg/kgbw, 72 h",1
same,Structural Aberrations Ring,"[3]; 60 mg/kgbw, 24 h",4
same,Structural Aberrations Ring,"[3]; 60 mg/kgbw, 48 h",9
same,Structural Aberrations Ring,"[3]; 60 mg/kgbw, 72 h",2
same,Olive Tail Moment,"[4]; 20 mg/kgbw, 24 h","5.65 ± 0.33 ***^,a"
same,Tail Length (µm),"[4]; 20 mg/kgbw, 24 h","22.44 µm and 22.44 ± 2.07 ***^,a µm"
same,Olive Tail Moment,"[4]; 20 mg/kgbw, 48 h","4.01 ± 0.48 ***^,a"
same,Tail Length (µm),"[4]; 20 mg/kgbw, 48 h","19.26 ± 1.00 *^,a µm"
same,Olive Tail Moment,"[4]; 20 mg/kgbw, 72 h","2.71 ± 0.31 *^,a"
same,Tail Length (µm),"[4]; 20 mg/kgbw, 72 h","16.16 ± 1.35 *^,a µm"
same,Tail Length (µm),"[4]; 40 mg/kgbw, 24 h","24.37 ± 1.66 ***^,a,b µm"
same,Olive Tail Moment,"[4]; 40 mg/kgbw, 48 h","5.35 ± 0.48 ***^,a,*^,b"
same,Tail Length (µm),"[4]; 40 mg/kgbw, 48 h","25.07 ± 1.87 ***^,a,b µm"
same,Olive Tail Moment,"[4]; 40 mg/kgbw, 72 h","3.13 ± 0.28 *^,a"
same,Tail Length (µm),"[4]; 40 mg/kgbw, 72 h","21.12 ± 1.45 ***^,a µm"
same,Tail Length (µm),"[4]; 60 mg/kgbw, 24 h","30.09 µm and 30.09 ± 2.86 ***^,a,b µm"
same,Olive Tail Moment,"[4]; 60 mg/kgbw, 48 h","6.46 ± 0.64 ***^,a,b,c"
same,Tail Length (µm),"[4]; 60 mg/kgbw, 48 h","27.63 ± 3.12 ***^,a,c,**^,b µm"
same,Olive Tail Moment,"[4]; 60 mg/kgbw, 72 h","4.84 ± 0.41 **^,a"
same,Tail Length (µm),"[4]; 60 mg/kgbw, 72 h","20.37 ± 1.59 *^,a,c µm"
same,increase of OTM vis-a-vis negative control,"[4]; single dose of 10 mg DM/kgbw, 24 h",~5 fold
same,MMP loss (membrane potential loss),[5],greater than 90%
